Marks after values point to notes of the source that are not given here. Residues, ends and D or L forms follow the SMILES beside them.
Columns and labels:
[1] = tested on: old rats' thymus explants; test: Development of thymus explants taken from old rats (area index); assay type: cell-based; details: 0.5 ng/ml; 3rd day of cultivating; rats aged 24 months
Procedure: The experiments were staged on 35 fragments of the thymus and 45 fragments of the spleen taken from rats aged 24 months. Nutritional medium for cultivation consisted of 35% Eagle's solution, 25% calf fetal serum, 35% Hanx solution, 5% chicken embryonic extract, with the addition of glucose (0.6%), insulin (0.5 U/ml), penicillin (100 U/ml), glutamin (2 mM). […]
Peptide H-Glu-Asp-Pro-OH was added into the experimental medium in concentrations of 0.5, 10 and 100 ng/ml.
Area index (AI)—the ratio of total explant area including the growth zone to the initial area of thymus or spleen fragment was used as a criterion for measuring the biological activity. AI values were expressed in percent, control AI value being taken as 100%.

[2] = tested on: thymus epithelium cells, line VTEC2.H/S; test: Proliferation of thymus epithelium cells in ageing cultures (3H-thymidin); assay type: cell-based, human; parameters: unit not given here
Procedure: The study was staged in vitro in the culture of thymus epithelium cells, which were represented by cells of suspension line VTEC2.H/S, obtained by transforming thymus epithelial cells of human embryo thymus with the material containing SV40 virus, and subsequent cloning of transformed cells.
Peptide H-Glu-Asp-Pro-OH was introduced into cell cultures in successive dilutions to ultimate concentrations of 2, 20 and 200 ng/ml. Proliferation of thymus epithelium cells subjected to 1, 4 and 7 passages was estimated using a radiometrical method, judging by the content of ^3H-thymidin.

[3] = tested on: male guinea pigs; details: guinea pig, in vivo
Procedure: Common toxicity of H-Glu-Asp-Pro-OH was studied according to the requirements stated in the “Manual for experimental (pre-clinical) study of new pharmacological substances” (2005): acute toxicity in case of single administration of the substance and sub-acute and chronic toxicity in case of long-term administration of the peptide.
The study of acute toxicity was performed on 60 white mongrel male mice with body weight of 18-21 g. The animals were randomly subdivided into 6 equal groups. The substance was administered to the animals once, intramuscularly, in the doses of 1 mg/kg, 2 mg/kg, 3 mg/kg, 4 mg/kg, 5 mg/kg in 0.25 ml of sterile 0.9% NaCl solution. The control animals received 0.9% NaCl solution in the same volume. The study of subacute toxicity was performed on 50 white mongrel male rats with body weight of 170-210 g. Experimental animals received the substance daily, intramuscularly for 90 days in the doses of 1 μg/kg, 0.1 mg/kg, 1 mg/kg in 0.5 ml of sterile 0.9% NaCl solution. […] Upon completion of the experiment biochemical and coagulologic indices of the blood were also evaluated. […] Traditional methods were used for the evaluation of the following indices of the animals' peripheric blood: the quantity of erythrocytes, hemoglobin, reticulocytes, thrombocytes, leukocytes, leukocyte formula, erythrocyte sedimentation rate (ESR), erythrocyte resistance. […]

[4] = tested on: elderly and old patients with age-related immune status decline; test: Clinical application in elderly and old patients exposed to small doses of ionizing irradiation; assay type: in vivo, human
Procedure: The efficacy of pharmaceutical composition, containing an effective amount of peptide H-Glu-Asp-Pro-OH as an active base, was studied in elderly and old patients, exposed to long-term ionizing irradiation in small doses.
The main group consisted of 38 elderly patients (18 men, 20 women), who were divided into 3 groups according to the intensity of immune status changes. […] Elderly and old patients with age-related decrease of the immune functions were injected with the pharmaceutical composition containing peptide H-Glu-Asp-Pro-OH in the dose of 10.0 μg in 1 ml of sterile 0.9% NaCl solution intramuscularly, daily, once a day for 10 days. 32 control group patients (14 men, 18 women) received only conventional treatment. The patients of both groups were from 62 to 83 years old. The efficacy of the pharmaceutical composition containing peptide H-Glu-Asp-Pro-OH was estimated judging by the dynamics of the patients' complaints and a set of objective indices, such as common blood and urine tests, immunologic study of peripheral blood (the number of T- and B-lymphocytes was estimated using the immunofluorescence method with monoclonal antibodies to CD3, CD4, CD8, CD20 differentiation lymphocytes antigens; content of immunoglobulins of different classes—using Mancini's method of radial immunodiffusion in the gel, T-lymphocytes functional activity—in lymphocyte migration inhibition reaction (LMIR) with Con A.

[5] = patients 62-83 years, after treatment including the peptide, i.m. daily for 10 days

For N[C@@H](CCC(=O)O)C(=O)N[C@@H](CC(=O)O)C(=O)N1CCC[C@H]1C(=O)O [Peptide H-Glu-Asp-Pro-OH, glutamyl-aspartyl-proline] (H-Glu-Asp-Pro-OH), the “Area index (AI) in thymus explants, increase as compared to the control AI” value [1] was 24%, the “Proliferation of thymus epithelial cells (3H-thymidin content)” value (“Proliferation of thymus epithelial cells” for short) ([2]; 2 ng/ml, 1st passage) was 1480 ± 89 and the “Proliferation of thymus epithelial cells” value ([2]; 2 ng/ml, 4th passage) was 730 ± 54. For the same molecule, the “Proliferation of thymus epithelial cells” value ([2]; 2 ng/ml, 7th passage) was 705 ± 46, the “Proliferation of thymus epithelial cells” value ([2]; 20 ng/ml, 1st passage) was 1585 ± 95 and the “Proliferation of thymus epithelial cells” value ([2]; 20 ng/ml, 4th passage) was 680 ± 48. For the same molecule, the “Proliferation of thymus epithelial cells” value ([2]; 20 ng/ml, 7th passage) was 680 ± 41, the “Proliferation of thymus epithelial cells” value ([2]; 200 ng/ml, 1st passage) was 1530 ± 91 and the “Proliferation of thymus epithelial cells” value ([2]; 200 ng/ml, 4th passage) was 760 ± 58. The “Proliferation of thymus epithelial cells” value ([2]; 200 ng/ml, 7th passage) was 795 ± 49, the “Changes in blood morphology, biochemical indices, ESR, erythrocyte resistance” value [3] was “no statistically significant changes” and the “Patients in whom disordered immune system indices were normalized” value ([4]; composition in different doses with symptomatic means, 56% in the control group) was 82%. For the same molecule, the “Side effects in patients” value ([4]; elderly and old patients, composition in different doses) was “does not exert any side effects, complications or drug addiction”, the “General state and asthenic syndrome after the treatment course” value ([4]; elderly people in the three main groups) was “significant improvement of the general state and reduction of the asthenic syndrome” and the “CD3+, %” value [4, 5] was 55.7 ± 2.6 %. The “CD3+, ×10^9/l” value [4, 5] was 1.86 ± 0.05 ×10^9/l, the “CD4+, %” value [4, 5] was 34.6 ± 2.0 % and the “CD4+, ×10^9/l” value [4, 5] was 0.67 ± 0.09 ×10^9/l. For the same molecule, the “CD4+/CD8+” value [4, 5] was 1.4*#, the “CD8+, %” value [4, 5] was 24.9 ± 1.8% and the “CD8+, ×10^9/l” value [4, 5] was 0.46 ± 0.07 ×10^9/l. The “CD20+, %” value [4, 5] was 12.0 ± 0.7%, the “CD20+, ×10^9/l” value [4, 5] was 0.20 ± 0.01 ×10^9/l and the IgA [4, 5] was 2.1 ± 0.3 g/L. The IgG [4, 5] was 14.9 ± 1.7 g/L, the IgM [4, 5] was 1.64 ± 0.06 g/L and the “LMIR (lymphocyte migration inhibition reaction with Con A)” value [4, 5] was 70.4 ± 4.9 %. The Leukocytes [4, 5] was 5.6 ± 0.1 ×10^9/l, the “Lymphocytes, %” value [4, 5] was 35.1 ± 2.1% and the “Lymphocytes, ×10^9/l” value [4, 5] was 1.87 ± 0.05 ×10^9/l.

Source: patent US8057810B2, “Peptide substance revealing an immunogeroprotective effect, pharmaceutical composition on its base and the method of its application” (priority 2006, dated 2011)
